Measurements as given in patent publication US10988462B2, “Pyrazole compounds substituted with heteroaryl and pharmaceutical use thereof” (Japan Tobacco Inc., priority 2018, dated 2021).

Key:
[1] = system: Salmonella typhimurium TA98; test: Ames test (reverse mutation test), pre-incubation method, strain TA98
Procedure: (§1) Ames Test (Reverse Mutation Test)
(§2) Metabolites 1 to 3 and Metabolites A to E were each tested herein. The purpose of this test is to evaluate the potential of each metabolite to induce reverse mutations in the standard strains of Salmonella typhimurium (TA98, TA1537, TA100, and TA1535) and Escherichia coli (WP2uvrA), in either the presence or absence of a rat liver metabolic activation system (S9 mix).
(§3) The solvent used herein was dimethyl sulfoxide (DMSO, 100 μL/plate).
(§4) The test was performed by the pre-incubation method with or without S9 mix. When the test was performed without S9 mix, sodium phosphate buffer solution (pH 7.4) was added.
(§5) 0.5 mL of S9 mix or 0.5 mL of 0.1 mol/L sodium phosphate buffer solution (pH 7.4), and 0.1 mL of the bacterial culture solution were added to a test tube containing 0.1 mL of the negative control formulation (DMSO alone), the metabolite, or the positive control formulation. The mixtures were pre-incubated at 37° C. for 20 minutes while shaking. After the pre-incubation period, 2 mL of top agar were added and the mixtures were vortex-mixed and seeded onto plates. Two plates per treatment were used. Each plate was incubated at 37±1° C. for 48 hours or more and the revertant colonies were counted. The mean number of revertant colonies for each treatment plate was then calculated. The presence or absence of growth inhibition due to any antibacterial effect of the test article and precipitation of the test article was observed grossly or under a stereomicroscope. […] Evaluation was based on mean values with no statistical comparisons being used.

[2] = system: Salmonella typhimurium TA1537; test: Ames test (reverse mutation test), pre-incubation method, strain TA1537; assay type: cell-based
Procedure: as §1, §2, §3, §4, §5

[3] = system: Salmonella typhimurium TA100; test: Ames test (reverse mutation test), pre-incubation method, strain TA100; assay type: cell-based
Procedure: as §1, §2, §3, §4, §5

[4] = system: Salmonella typhimurium TA1535; test: Ames test (reverse mutation test), pre-incubation method, strain TA1535; assay type: cell-based
Procedure: as §1, §2, §3, §4, §5

Escherichia coli WP2uvrA = test: Ames test (reverse mutation test), pre-incubation method, strain WP2uvrA; assay type: cell-based
Source text: as §1
Two plates per treatment were used.

With `CC(C)(Oc1cc(F)cc(-c2cc(N)nn2-c2cnc(C(F)(F)F)nc2)c1)C(F)(F)F` [Metabolite 1] the “Number of revertant colonies TA98” value ([1]; S9 mix +, dose 185 μg/plate) was 40, the “Number of revertant colonies TA98” value ([1]; S9 mix −, dose 21 μg/plate) was 32 and the “Number of revertant colonies TA1537” value ([2]; S9 mix +, dose 6.9 μg/plate) was 13. For the same compound, the “Number of revertant colonies TA1537” value ([2]; S9 mix +, dose 21 μg/plate) was 12, the “Number of revertant colonies TA1537” value ([2]; S9 mix +, dose 62 μg/plate) was 13 and the “Number of revertant colonies TA1537” value ([2]; S9 mix +, dose 185 μg/plate) was 13. The “Number of revertant colonies TA1537” value ([2]; S9 mix +, dose 556 μg/plate) was 10, the “Number of revertant colonies TA1537” value ([2]; S9 mix +, dose 1667 μg/plate) was 9 and the “Number of revertant colonies TA1537” value ([2]; S9 mix +, dose 5000 μg/plate) was 4. The “Number of revertant colonies TA1537” value ([2]; S9 mix −, dose 6.9 μg/plate) was 8, the “Number of revertant colonies TA1537” value ([2]; S9 mix −, dose 21 μg/plate) was 8 and the “Number of revertant colonies TA1537” value ([2]; S9 mix −, dose 62 μg/plate) was 8. For the same compound, the “Number of revertant colonies TA1537” value ([2]; S9 mix −, dose 185 μg/plate) was 9, the “Number of revertant colonies TA1537” value ([2]; S9 mix −, dose 556 μg/plate) was 9 and the “Number of revertant colonies TA1537” value ([2]; S9 mix −, dose 1667 μg/plate) was 5. The “Number of revertant colonies TA1537” value ([2]; S9 mix −, dose 5000 μg/plate) was 3, the “Number of revertant colonies TA100” value ([3]; S9 mix +, dose 6.9 μg/plate) was 132 and the “Number of revertant colonies TA100” value ([3]; S9 mix +, dose 21 μg/plate) was 132. For the same compound, the “Number of revertant colonies TA100” value ([3]; S9 mix +, dose 62 μg/plate) was 113, the “Number of revertant colonies TA100” value ([3]; S9 mix +, dose 185 μg/plate) was 108 and the “Number of revertant colonies TA100” value ([3]; S9 mix +, dose 556 μg/plate) was 128. For the same compound, the “Number of revertant colonies TA100” value ([3]; S9 mix +, dose 1667 μg/plate) was 131, the “Number of revertant colonies TA100” value ([3]; S9 mix +, dose 5000 μg/plate) was 121 and the “Number of revertant colonies TA100” value ([3]; S9 mix −, dose 6.9 μg/plate) was 89. For the same compound, the “Number of revertant colonies TA100” value ([3]; S9 mix −, dose 21 μg/plate) was 87, the “Number of revertant colonies TA100” value ([3]; S9 mix −, dose 62 μg/plate) was 87 and the “Number of revertant colonies TA100” value ([3]; S9 mix −, dose 185 μg/plate) was 89. For the same compound, the “Number of revertant colonies TA100” value ([3]; S9 mix −, dose 556 μg/plate) was 80, the “Number of revertant colonies TA100” value ([3]; S9 mix −, dose 1667 μg/plate) was 69 and the “Number of revertant colonies TA100” value ([3]; S9 mix −, dose 5000 μg/plate) was 47. The “Number of revertant colonies TA1535” value ([4]; S9 mix +, dose 6.9 μg/plate) was 10, the “Number of revertant colonies TA1535” value ([4]; S9 mix +, dose 21 μg/plate) was 8 and the “Number of revertant colonies TA1535” value ([4]; S9 mix +, dose 62 μg/plate) was 9. The “Number of revertant colonies TA1535” value ([4]; S9 mix +, dose 185 μg/plate) was 10, the “Number of revertant colonies TA1535” value ([4]; S9 mix +, dose 556 μg/plate) was 9 and the “Number of revertant colonies TA1535” value ([4]; S9 mix +, dose 1667 μg/plate) was 10. For the same compound, the “Number of revertant colonies TA1535” value ([4]; S9 mix +, dose 5000 μg/plate) was 7, the “Number of revertant colonies TA1535” value ([4]; S9 mix −, dose 6.9 μg/plate) was 11 and the “Number of revertant colonies TA1535” value ([4]; S9 mix −, dose 21 μg/plate) was 10. For the same compound, the “Number of revertant colonies TA1535” value ([4]; S9 mix −, dose 62 μg/plate) was 9, the “Number of revertant colonies TA1535” value ([4]; S9 mix −, dose 185 μg/plate) was 7 and the “Number of revertant colonies TA1535” value ([4]; S9 mix −, dose 556 μg/plate) was 9. For the same compound, the “Number of revertant colonies TA1535” value ([4]; S9 mix −, dose 1667 μg/plate) was 5, the “Number of revertant colonies TA1535” value ([4]; S9 mix −, dose 5000 μg/plate) was 7 and the “Number of revertant colonies WP2uvrA” value (Escherichia coli WP2uvrA; S9 mix +, dose 6.9 μg/plate) was 18. For the same compound, the “Number of revertant colonies WP2uvrA” value (Escherichia coli WP2uvrA; S9 mix +, dose 21 μg/plate) was 20, the “Number of revertant colonies WP2uvrA” value (Escherichia coli WP2uvrA; S9 mix +, dose 62 μg/plate) was 18 and the “Number of revertant colonies WP2uvrA” value (Escherichia coli WP2uvrA; S9 mix +, dose 185 μg/plate) was 16. The “Number of revertant colonies WP2uvrA” value (Escherichia coli WP2uvrA; S9 mix +, dose 556 μg/plate) was 18, the “Number of revertant colonies WP2uvrA” value (Escherichia coli WP2uvrA; S9 mix +, dose 1667 μg/plate) was 14 and the “Number of revertant colonies WP2uvrA” value (Escherichia coli WP2uvrA; S9 mix +, dose 5000 μg/plate) was 11. The “Number of revertant colonies WP2uvrA” value (Escherichia coli WP2uvrA; S9 mix −, dose 6.9 μg/plate) was 17, the “Number of revertant colonies WP2uvrA” value (Escherichia coli WP2uvrA; S9 mix −, dose 21 μg/plate) was 19 and the “Number of revertant colonies WP2uvrA” value (Escherichia coli WP2uvrA; S9 mix −, dose 62 μg/plate) was 16. For the same compound, the “Number of revertant colonies WP2uvrA” value (Escherichia coli WP2uvrA; S9 mix −, dose 185 μg/plate) was 17, the “Number of revertant colonies WP2uvrA” value (Escherichia coli WP2uvrA; S9 mix −, dose 556 μg/plate) was 18 and the “Number of revertant colonies WP2uvrA” value (Escherichia coli WP2uvrA; S9 mix −, dose 1667 μg/plate) was 15. For the same compound, the “Number of revertant colonies WP2uvrA” value (Escherichia coli WP2uvrA; S9 mix −, dose 5000 μg/plate) was 9.
